Counter-ions that a name gives are not always drawn. Where a SMILES comes first, the peptide text is derived from it. [ ]: non-standard residue; d: D form. The star is where a group is joined. Sta = CC(C)C[C@H](N)[C@@H](O)CC(=O)O; Isovaleryl = CC(C)CC(=O)*
What was measured:
[1] = biological target: T1, Candida albicans acid protease (Candida albicans, UniProt P0DJ06); experiment: In vitro inhibitor assay, microtiter assay with fluorogenic substrate A78331; format: biochemical, Candida albicans ATCC10231
T1 construct: endogenous in cells; host or cells: Candida albicans ATCC10231 (proteinase secreted into the culture medium, purified in house)
T1 sequence (P0DJ06 57-398): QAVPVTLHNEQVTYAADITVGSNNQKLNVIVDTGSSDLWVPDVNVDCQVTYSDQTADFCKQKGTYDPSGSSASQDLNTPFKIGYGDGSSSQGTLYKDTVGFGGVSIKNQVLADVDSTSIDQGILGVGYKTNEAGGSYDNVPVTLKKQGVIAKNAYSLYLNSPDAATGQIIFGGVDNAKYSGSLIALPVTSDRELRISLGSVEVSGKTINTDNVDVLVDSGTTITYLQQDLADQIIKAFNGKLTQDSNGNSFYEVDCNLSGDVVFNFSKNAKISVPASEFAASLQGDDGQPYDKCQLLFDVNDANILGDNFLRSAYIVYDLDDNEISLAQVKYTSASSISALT
Protocol: Isolation and Purification of Candida albican Acid Protease Organism and growth conditions. Candida albicans ATCC10231 was grown overnight in Sabouraud broth (Difco) at 30° C. Cells were centrifuged at 10,000xg for 10 min (4° C.) and the cell pellet washed once with 10 mM phosphate buffered saline (PBS), pH7.0. Washed cells (6×10^6 colony forming units per mL) were grown in yeast nitrogen base without ammonium sulfate or amino acids (Difco), plus 2% glucose and 0.1% casein (nitrogen source) at 37° C.
Proteinase isolation. […] Cells were then harvested at 10,000xg for 20 min (4° C.) and the supernatant filtered through a 0.2μ acetate filter unit (Nalgen). The filtrate was concentrated on an Amicon concentrator (PM30 or YM10 membrane, 75 mm) and 30 mL of the concentrate was loaded onto a Cibacron blue F3GA-6% agarose (Pierce Chem.) column (1.5x44cm) equilibrated with 10 mM sodium citrate, pH 6.5, containing lmM EDTA and 0.02% sodium azide (Ray, T. L., and Payne, C. D. Infection and Immunity 58:508-514, 1990). Bovine serum albumin (BSA) was used as substrate to monitor the column for proteinase activity and to determine total proteolytic units. One BSA proteolytic unit was defined as an optical density (750 nm wavelength) increase of 0.100 under incubation conditions of 37° C. for 60 min (Remold, H., Fasold, H., and Staib, F. Biochimica et Biophysica Acta I67:399-406, 1968). […] Proteinase purity and molecular weight was determined by the Phast-gel (12.5% acrylamide) electrophoresis system (Pharmacia). Protein was determined by the Lowry method (Lowry, O. H., Rosenbrough, N. J., Farr, A. L., and Randall, R. J. Journal of Biological Chemistry 193:263-275, 1951). A fluorogenic substrate, A78331, may also be used to monitor proteinase production and purification. This substrate, DABCYL-Gaba-[…]EDANS (Holzman, T. F., Chung, C. C., Edalji, R., Egan, D. A., Gubbins, E. J., Rueter, A., Howard, G., Yang, L. K., Pederson, T. M., Krafft, G. A., and Wang, G. T. Journal of Protein Chemistry 9:663-672, 1990) contains the fluorescent EDANS group, [5-(2-aminoethyl)-amino]naphthalene-1-sulfonic acid, which is quenched by the DABCYL group, 4-(4-dimethyl-aminophenylazo)benzoic acid, as long as it is part of the molecule (Matayoshi, E. D., Wang, G. T., Krafft, G. A., and Erickson, J. Science 247:954-958, 1990). Proteolysis of this compound by the fungal proteinase releases Thr-EDANS, which when activated at 340 nm fluoresces at 490 nm with the same intensity as equimolar EDANS. Activity is expressed in terms of nmol EDANS released from 32 μM A78331 under incubation conditions of 22° C. for 60 min.
In Vitro Inhibitor Assay Method
Microtiter assay. The assay for inhibitors of C. albicans acid proteinase was done in microtiter trays with the fluorogenic substrate A78331. […] The reaction mixture consisted of 5μL test compound or dimethyl sulfoxide and 45μL of fungal proteinase (0.13 BSA proteolytic units or 0.13 nmol EDANS released) in 50 mM sodium citrate, pH 4.5, which was preincubated at 22° C. for 30 min. The reaction was started with the addition of 50μL fluorogenic substrate in citrate buffer and the incubation was continued at 22° C. for 90 min. The reaction was terminated with 150μL pepstatin (final concentration of 1μM) and 210μL samples were transfered to microfluor plates for fluorescence quantitation in a luminescence spectrophotometer (Perkin-Elmer model LS-50). The excitation wavelength was 340 nm and the emission was monitored at 490 nm (430 nm filter employed). Inhibition was expressed as % change in relative intensity from the dimethyl sulfoxide control group (no inhibitor). IC50's were determined from plots of log dose versus % inhibition from control.

Candida acid protease = settings: background art; cited from earlier work

CCCC[C@@H](C(=O)N[C@@H](CC1CCCCC1)[C@@H](O)C[C@@H](C(=O)NCCCN1CCOCC1)C(C)C)N1CCN(S(=O)(=O)N2CCN(C)CC2)[C@@H](Cc2ccccc2)C1=O [Example 15, (2S)-2-{(3S)-3-Benzyl-4-N-(4-methylpiperazin-1-yl-sulfonyl)-2-keto-piperazine-1-yl}-hexanoic acid Amide of (2R,4S,5S)-5-Amino-6-cyclohexyl-4hydroxy-2-isopropylhexanoyl N-[3-(N-Morpholinyl)propyl]amide]
IC50 [1]: 3.8 nM

CC(C)C[C@H](NC(=O)[C@@H](NC(=O)N[C@@H](Cc1ccccc1)C(=O)O)[C@@H]1CCN=C(N)N1)C(=O)N[C@H](C=O)Cc1ccccc1 [chymostatin]
potency as inhibitor of Candida acid protease (in words) (Candida acid protease): not very potent inhibitors of the enzyme | specificity (in words) (Candida acid protease): non-specific

CCCC[C@@H](C(=O)N[C@@H](CC1CCCCC1)[C@@H](O)C[C@@H](C(=O)NCCCN1CCOCC1)C(C)C)N1CCN(C(=O)N2CCC(OCOC)CC2)[C@@H](Cc2ccccc2)C1=O [Example 16, (2S)-2-{(3S)-3-Benzyl-4-N-(4-methoxymethoxypiperidin-1-yl-carbonyl)-2-keto-piperazin-1-yl}-hexanoic acid Amide of (2R, 4S, 5S)-5-Amino-6-cyclohexyl-4-hydroxy-2-isopropylhexanoyl N-[3-(N-Morpholinyl)propyl]amide]
IC50 [1]: 5 nM

CCCCNC(=O)[C@H](C[C@H](O)[C@H](CC1CCCCC1)NC(=O)[C@H](CCCC)N1CCN(C(=O)N2CCN(C)CC2)[C@H](Cc2ccccc2)C1=O)C(C)C [Example 1, (2S)-2-((3R)-3-Benzyl-4-N-(4-methylpiperazin-1-yl-carbonyl)-2-keto-piperazin-1-yl}-hexanoic acid Amide of (2R,4S,5S)-5-amino-6-cyclohexyl-4-hydroxy-2-isopropylhexanoyl N-(n-Butyl)amide Hydrochloride]
IC50 [1]: 1.3 nM

CCCC[C@@H](C(=O)N[C@@H](CC1CCCCC1)[C@@H](O)C[C@@H](C(=O)NCCCN1CCOCC1)C(C)C)N1CCN(C(=O)N2CCN(C)CC2)[C@@H](Cc2ccccc2)C1=O [Example 12, (2S)-2-{(3S)-3-Benzyl-4-N-(4-methylpiperazin-1-yl-carbonyl)-2-keto-piperazin-1-yl}-hexanoic acid Amide of (2R,4S,5S)-5-Amino-6-cyclohexyl-4-hydroxy-2-isopropylhexanoyl N-3-(N-Morpholinyl)propyllamide]
IC50 [1]: 3.8 nM

CCCCNC(=O)[C@H](C[C@H](O)[C@H](CC1CCCCC1)NC(=O)[C@H](CCCC)N1CCN(C(=O)N2CCC(OCOC)CC2)[C@@H](Cc2ccccc2)C1=O)C(C)C [Example 14, 2S-(3S-Benzyl-4-N-(4-methoxymethoxypiperidinyl-carbonyl)-2-keto-piperazin-1-yl)-hexanoic acid Amide of (2R,4,5S) -5-Amino-6-cyclohexyl-4-hydroxy-2-isopropylhexanoyl N-(n-Butyl)amide]
IC50 [1]: 4.5 nM

CCCCNC(=O)[C@H](C[C@H](O)[C@H](CC1CCCCC1)NC(=O)[C@H](CCCC)N1CCN(S(=O)(=O)N2CCN(C)CC2)[C@@H](Cc2ccccc2)C1=O)C(C)C [Example 13]
IC50 [1]: 2.7 nM

CC(C)CC(=O)N[C@H](C(=O)N[C@H](C(=O)N[C@@H](CC(C)C)[C@@H](O)CC(=O)N[C@@H](C)C(=O)N[C@@H](CC(C)C)[C@@H](O)CC(=O)O)C(C)C)C(C)C [Pepstatin A] (Isovaleryl-VV[Sta]A[Sta]-OH)
potency as inhibitor of Candida acid protease (in words) (Candida acid protease): not very potent inhibitors of the enzyme | specificity (in words) (Candida acid protease): non-specific

CCCC[C@@H](C(=O)N[C@@H](CC1CCCCC1)[C@@H](O)C[C@@H](C(=O)NCCCN(C)C)C(C)C)N1CCN(C(=O)N2CCN(C)CC2)[C@H](Cc2ccccc2)C1=O [Example 18, (2S)-2{(3R)-3-Benzyl-4-N-(4-methylpiperazin-1-yl-carbonyl)-2-keto-piperazin-1-yl}-hexanoic acid Amide of (2R,4S,5S)-5-Amino-6-cyclohexyl-4-hydroxy-2-isopropylhexanoyl N-[3-(Dimethylamino)propyl]amide]
IC50 [1]: 3.8 nM

CCCC[C@@H](C(=O)N[C@@H](CC1CCCCC1)[C@@H](O)C[C@@H](C(=O)NCCN(C)C)C(C)C)N1CCN(C(=O)N2CCN(C)CC2)[C@H](Cc2ccccc2)C1=O [Example 17]
IC50 [1]: 6.2 nM

CCCC[C@@H](C(=O)N[C@@H](CC1CCCCC1)[C@@H](O)[C@@H](O)CC(C)C)N1CCN(S(=O)(=O)c2ccc(NC)cc2)[C@H](Cc2ccccc2)C1=O [Example 11, (2S)-2-{(3R)-3-Benzyl-4-N-(4-(methylamino)benzene-sulfonyl)-2-keto-piperazin-1-yl}-hexanoic acid Amide of (2S,3R,4S)-2-Amino-1-cyclohexyl-3,4-dihydroxyl-6-methylheptane]
IC50 [1]: 85 nM

CCCCNC(=O)[C@H](C[C@H](O)[C@H](CC1CCCCC1)NC(=O)[C@H](CCCC)N1CCN(S(=O)(=O)c2ccc(OC)cc2)[C@H](Cc2ccccc2)C1=O)C(C)C [Example 5, (2S)-2-{(3R)-3-Benzyl-4-N-(4-methoxybenzene-sulfonyl)-2-keto-piperazin-1-yl)-hexanoic acid Amide of (2R,4S,5S)-5-Amino-6-cyclohexyl-4-hydroxy-2-isopropylhexanoyl N-(n-Butyl)amide]
IC50 [1]: 13.3 nM

CCCCNC(=O)[C@H](C[C@H](O)[C@H](CC1CCCCC1)NC(=O)[C@H](CCCC)N1C[C@@H](Cc2ccccc2)N(S(=O)(=O)c2ccc(C)cc2)CC1=O)C(C)C [Example 3, (2S)-2-{(3R)-3-Benzyl-4-N-(4-methylbenzene-sulfonyl)-6-keto-piperazin-1-yl}-hexanoic acid Amide of (2R,4S,5S)-5-Amino-6-cyclohexyl-4-hydroxy-2-isopropylhexanoyl N-(n-Butyl)amide]
IC50 [1]: 30.1 nM

Reference: US5120718A, “Candida acid protease inhibiting compounds” (priority 1991, dated 1992)
